In patent publication US10428083B2, “Heterocyclylmethyl-thienouracile as antagonists of the adenosine-A2B-receptor” (BAYER PHARMA AKTIENGESELLSCHAFT, priority 2015, dated 2019) one finds IC50 data, which are given here for 20 molecules.

pIC50: −log10 of the molar value.

The target of the assay is human adenosine A2b receptor (Homo sapiens (Human), UniProt P29275). The assay is described as follows: Cellular in vitro reporter gene test for A2b receptor activity (CHO-K1, CRE-luciferase, NECA stimulation). The settings on record: recombinant CHO-K1 cell line, CRE-luciferase reporter, antagonism of EC50 concentration of NECA; in some cases means of several determinations, rounded to two significant figures; read-out: A2b receptor IC50. The format is cell-based. An outline of the steps: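 CHO-K1 cells with CRE-driven luciferase; antagonists co-incubated with NECA at its EC50, determined in a pre-experiment on each test day. Luciferase read by luminescence 3 h after NECA addition.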
Sequence of human adenosine A2b receptor (P29275 whole entry): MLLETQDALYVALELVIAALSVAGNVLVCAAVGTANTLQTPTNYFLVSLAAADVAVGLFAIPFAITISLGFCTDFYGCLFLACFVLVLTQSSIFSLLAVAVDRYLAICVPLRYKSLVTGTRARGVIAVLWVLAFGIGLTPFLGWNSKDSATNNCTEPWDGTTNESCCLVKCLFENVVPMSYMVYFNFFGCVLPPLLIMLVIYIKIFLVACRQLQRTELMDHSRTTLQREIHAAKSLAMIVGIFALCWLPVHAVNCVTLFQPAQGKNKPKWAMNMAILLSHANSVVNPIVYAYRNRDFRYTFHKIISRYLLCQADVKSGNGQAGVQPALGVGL

Take `Cc1c(CN2CCNC2=O)sc2c1c(=O)n(CC(C)C)c(=O)n2CC(F)F` [Example 191, 1-(2,2-Difluoroethyl)-3-isobutyl-5-methyl-6-[(2-oxoimidazolidin-1-yl)methyl]thieno[2,3-d]pyrimidine-2,4(1H,3H)-dione]: the pIC50 was 8.48.
With `COCCn1c(=O)c2c(C)c(CN3CCNC(=O)C3=O)sc2n(CC2CCO2)c1=O` (single isomer, unassigned) [Example 401, 6-[(2,3-Dioxopiperazin-1-yl)methyl]-3-(2-methoxyethyl)-5-methyl-1-(oxetan-2-ylmethyl)thieno[2,3-d]pyrimidine-2,4(1H,3H)-dione] the figure was 6.18.
Turning to `COCCn1c(=O)c2c(C)c(CN3CCNC3=NC#N)sc2n(CC2CCO2)c1=O` (single isomer, unassigned) [Example 365, [1-{[3-Methoxyethyl-5-methyl-1-(oxetan-2-ylmethyl)-2,4-dioxo-1,2,3,4-tetrahydrothieno[2,3-d]pyrimidin-6-yl]methyl}imidazolidin-2-ylidene]cyanamide], the pIC50 is 6.96.
Turning to `COCCn1c(=O)n(C(C)C(F)(F)F)c(=O)c2c(C)c(CN3CCNC3=O)sc21` (racemic) [Example 410, 1-(2-Methoxyethyl)-5-methyl-6-[(2-oxoimidazolidin-1-yl)methyl]-3-(1,1,1-trifluoropropan-2-yl)thieno[2,3-d]pyrimidine-2,4(1H,3H)-dione], the pIC50 was 7.92.
Regarding `Cc1c(CN2CCNC2=S)sc2c1c(=O)n(CC(F)(F)F)c(=O)n2CC1CCCO1` (single isomer, unassigned) [Example 300, 5-Methyl-1-(tetrahydrofuran-2-ylmethyl)-6-[(2-thioxoimidazolidin-1-yl)methyl]-3-(2,2,2-trifluoroethyl)thieno[2,3-d]pyrimidine-2,4(1H,3H)-dione], the pIC50 is 7.85.
In the case of `C=CCCn1c(=O)c2c(C)c(CN3CCNC3=O)sc2n(CCOC)c1=O` [Example 316, 3-(But-3-en-1-yl)-1-(2-methoxyethyl)-5-methyl-6-[(2-oxoimidazolidin-1-yl)methyl]thieno[2,3-d]pyrimidine-2,4(1H,3H)-dione], the pIC50 is 8.89.
As for `Cc1c(CN2CCNC2=S)sc2c1c(=O)n(CC(F)(F)F)c(=O)n2CCCF` [Example 40, 1-(3-Fluoropropyl)-5-methyl-6-[(2-thioxoimidazolidin-1-yl)methyl]-3-(2,2,2-trifluoroethyl)thieno[2,3-d]pyrimidine-2,4(1H,3H)-dione], the pIC50 is 8.15.
Consider `CCn1c(=O)c2c(C)c(Cn3nc[nH]c3=O)sc2n(CC2CCCO2)c1=O` (racemic) [Example 419, 3-Ethyl-5-methyl-6-[(5-oxo-4,5-dihydro-1H-1,2,4-triazol-1-yl)methyl]-1-(tetrahydrofuran-2-ylmethyl)thieno[2,3-d]pyrimidine-2,4(1H,3H)-dione], for which the negative logarithm of the IC50 (pIC50) is 6.89.
For `CCn1c(=O)c2c(C(F)F)c(CN3CCNC3=S)sc2n(CCOC)c1=O` [Example 45, 5-(Difluoromethyl)-3-ethyl-1-(2-methoxyethyl)-6-[(2-thioxoimidazolidin-1-yl)methyl]thieno[2,3-d]pyrimidine-2,4(1H,3H)-dione], the pIC50 is 7.92.
Regarding `COCCn1c(=O)n(C(C)C(F)(F)F)c(=O)c2c(C)c(CN3CCNC3=O)sc21` (single isomer, unassigned) [Example 498, 1-(2-Methoxyethyl)-5-methyl-6-[(2-oxoimidazolidin-1-yl)methyl]-3-(1,1,1-trifluoropropan-2-yl)thieno[2,3-d]pyrimidine-2,4(1H,3H)-dione], the pIC50 was 7.10.
With `Cc1c(CN2CCNC2=O)sc2c1c(=O)n(C(C)C)c(=O)n2CCC(F)(F)F` [Example 181, 3-Isopropyl-5-methyl-6-[(2-oxoimidazolidin-1-yl)methyl]-1-(3,3,3-trifluoropropyl)thieno[2,3-d]pyrimidine-2,4(1H,3H)-dione] the figure was 8.82; with `COCCn1c(=O)n(CC=C(C)C)c(=O)c2c(C)c(CN3CCNC3=O)sc21` [Example 203, 1-(2-Methoxyethyl)-5-methyl-3-(3-methylbut-2-en-1-yl)-6-[(2-oxoimidazolidin-1-yl)methyl]thieno[2,3-d]pyrimidine-2,4(1H,3H)-dione], 7.24.
As to `Cc1c(CN2CCNC2=NC#N)sc2c1c(=O)n(CC(F)(F)F)c(=O)n2CC1CCCO1` (single isomer, unassigned) [Example 360, [1-{[5-Methyl-2,4-dioxo-1-(tetrahydrofuran-2-ylmethyl)-3-(2,2,2-trifluoroethyl)-1,2,3,4-tetrahydrothieno[2,3-d]pyrimidin-6-yl]methyl}imidazolidin-2-ylidene]cyanamide], the pIC50 is 8.00.
As to `COCCn1c(=O)n(CC(C)(C)OC)c(=O)c2c(C)c(CN3CCNC3=S)sc21` [Example 172, 1-(2-Methoxyethyl)-3-(2-methoxy-2-methylpropyl)-5-methyl-6-[(2-thioxoimidazolidin-1-yl)methyl]thieno[2,3-d]pyrimidine-2,4(1H,3H)-dione], the pIC50 was 8.14.
Consider `COC(=O)N=C1NCCN1Cc1sc2c(c1C)c(=O)n(C(C)C)c(=O)n2CC1CCCO1` (single isomer, unassigned) [Example 460, Methyl [1-{[3-isopropyl-5-methyl-2,4-dioxo-1-(tetrahydrofuran-2-ylmethyl)-1,2,3,4-tetrahydrothieno[2,3-d]pyrimidin-6-yl]methyl}imidazolidin-2-ylidene]carbamate], for which the pIC50 is 7.66.
For the molecule `CCOCCn1c(=O)c2c(C)c(CN3CCNC(=O)C3=O)sc2n(CCC(F)(F)F)c1=O` [Example 403, 6-[(2,3-Dioxopiperazin-1-yl)methyl]-3-(2-ethoxyethyl)-5-methyl-1-(3,3,3-trifluoropropyl)thieno[2,3-d]pyrimidine-2,4(1H,3H)-dione], the pIC50 is 7.46.
Take `COC(=O)N=C1NCCN1Cc1sc2c(c1C)c(=O)n(CC(F)(F)F)c(=O)n2CC1CCCO1` (racemic) [Example 384, Methyl [1-{[5-methyl-2,4-dioxo-1-(tetrahydrofuran-2-ylmethyl)-3-(2,2,2-trifluoroethyl)-1,2,3,4-tetrahydrothieno[2,3-d]pyrimidin-6-yl]methyl}imidazolidin-2-ylidene]carbamate]: the pIC50 is 8.01.
`Cc1c(CN2CCNC2=NC#N)sc2c1c(=O)n(CC(F)(F)F)c(=O)n2CC1CCO1` (centres unmarked) [Example 359, [1-{[5-Methyl-1-(oxetan-2-ylmethyl)-2,4-dioxo-3-(2,2,2-trifluoroethyl)-1,2,3,4-tetrahydrothieno[2,3-d]pyrimidin-6-yl]methyl}imidazolidin-2-ylidene]cyanamide]: the pIC50 was 7.43.
In the case of `COCCn1c(=O)c2c(C)c(CN3CCNC(=O)C3=O)sc2n(CCCF)c1=O` [Example 277, 6-[(2,3-Dioxopiperazin-1-yl)methyl]-1-(3-fluoropropyl)-3-(2-methoxyethyl)-5-methylthieno[2,3-d]pyrimidine-2,4(1H,3H)-dione] it was 7.17; in that of `Cc1c(Cn2nc[nH]c2=O)sc2c1c(=O)n(C(C)C)c(=O)n2CCC(F)(F)F` [Example 253, 3-Isopropyl-5-methyl-6-[(5-oxo-4,5-dihydro-1H-1,2,4-triazol-1-yl)methyl]-1-(3,3,3-trifluoropropyl)thieno[2,3-d]pyrimidine-2,4(1H,3H)-dione], 8.00.
